Data set [1] has as its system Staphylococcus aureus. Description: Antibacterial activity against Staphylococcus aureus MTCC 737 measured after 1 to 24 hrs by microplate reader assay. The format is functional, organism-based.
For data set [2], the system named is Mycolicibacterium smegmatis. The experiment in a line: Antimycobacterial activity against Mycobacterium smegmatis str. MC2 155 after 2 days by inverted microscopic analysis. The format is functional. To be noted: str. MC2 155, 48 h.
Data set [3] has as its system Mycobacterium tuberculosis. The experiment in a line: Antimycobacterial activity against Mycobacterium tuberculosis H37Rv after 14 days by inverted microscopic analysis. In kind it is functional. As to conditions: 336 h.
Data set [4] in a line: Therapeutic index, ratio of MHC50 for chicken RBC to MIC99 for Mycobacterium tuberculosis H37Rv. To be noted: chicken red blood cells, read-out: TI.
Data set [5] in a line: Therapeutic index, ratio of MHC50 for sheep RBC to MIC99 for Mycobacterium tuberculosis H37Rv. As to conditions: sheep red blood cells, read-out: TI.
The subject of data set [6] is Escherichia coli. Description: Antibacterial activity against Escherichia coli MTCC 443 after 12 hrs by microplate reader assay. In kind it is functional. To be noted: MTCC 443, 12 h.
The subject of data set [7] is Staphylococcus aureus. The experiment in a line: Antibacterial activity against Staphylococcus aureus MTCC 737 after 12 hrs by microplate reader assay. The format is functional. As to conditions: MTCC 737, 12 h.
The subject of data set [8] is A549. The experiment in a line: Cytotoxicity against human A549 cells after 48 hrs by MTT assay. In kind it is cell-based. To be noted: A549, 48 h. Background: Tetrazolium assays rely on reduction of a dye to a coloured formazan, in cell work by metabolically active cells.
Another data set has as its system THP-1. The experiment in a line: Cytotoxicity against human THP1 cells after 48 hrs by MTT assay. The format is cell-based. As to conditions: THP-1, 48 h.
Data set [9] deals with A549. The experiment in a line: Cytotoxicity against human A549 cells assessed as effect on cell cycle phase at 100 uM by propidium iodide staining-based flow cytometry. As to conditions: a549, 100 µM. (Flow cytometry measures light scatter and fluorescence of single cells or particles in a stream.)
In data set [10] the test system is Escherichia coli. The experiment in a line: Antibacterial activity against Escherichia coli MTCC 443 measured after 1 to 24 hrs by microplate reader assay. In kind it is functional, organism-based.
Data set [11] relates to Mycolicibacterium smegmatis. The experiment in a line: Antimycobacterial activity against Mycobacterium smegmatis str. MC2 155 after 6 to 96 hrs by inverted microscopic analysis relative to control. In kind it is functional.
Data set [12] deals with Escherichia coli. Description: Antibacterial activity against Escherichia coli MTCC 443 assessed as effect on membrane permeabilization by using propidium iodide dye. In kind it is functional, organism-based.
Data set [13] has as its system Staphylococcus aureus. Description: Antibacterial activity against Staphylococcus aureus MTCC 737 assessed as effect on membrane permeabilization by using propidium iodide dye. In kind it is functional, organism-based.
Data set [14] concerns Escherichia coli. The experiment in a line: Antibacterial activity against Escherichia coli MTCC 443 assessed as membrane surface indentations by atomic force microscopic analysis. In kind it is functional, organism-based.
The test system of data set [15] is Escherichia coli. Description: Antibacterial activity against Escherichia coli MTCC 443 assessed as micelle-like structures by atomic force microscopic analysis. The format is functional, organism-based.
The subject of data set [16] is Escherichia coli. The experiment in a line: Antibacterial activity against Escherichia coli MTCC 443 assessed as leakage of large amount of cytoplasmic contents by atomic force microscopic analysis. In kind it is functional, organism-based.
Data set [17] has as its system Escherichia coli. The experiment in a line: Antibacterial activity against Escherichia coli MTCC 443 after 12 hrs by microplate reader assay in presence of EDTA. The format is functional, organism-based.
Data set [18] relates to Staphylococcus aureus. The experiment in a line: Antibacterial activity against Staphylococcus aureus MTCC 737 after 12 hrs by microplate reader assay in presence of EDTA. The format is functional, organism-based.
Data set [19] has as its system Lipid bilayer. Description: Binding affinity to PE:PG:LPS membrane assessed as dehydration of membrane after 4 hrs.
A short description of data set [20]: Binding affinity to PE:PG membrane assessed as dehydration of membrane after 4 hrs.
The subject of data set [21] is Lipid bilayer. The experiment in a line: Binding affinity to PE:PG:TDM membrane assessed as dehydration of membrane after 4 hrs.
For data set [22], the system named is Lipid bilayer. Description: Binding affinity to PE:PG:LPS membrane assessed as membrane fluidity after 4 hrs.
Data set [23] can be described thus: Binding affinity to PE:PG membrane assessed as membrane fluidity after 4 hrs.
Data set [24] concerns Lipid bilayer. The experiment in a line: Binding affinity to PE:PG:TDM membrane assessed as membrane fluidity after 4 hrs.
The subject of data set [25] is Escherichia coli. The experiment in a line: Antibacterial activity against Escherichia coli MTCC 443 at 8 to 128 uM measured after 1 to 24 hrs by microplate reader assay. In kind it is functional, organism-based.
Data set [26] deals with Mycolicibacterium smegmatis. The experiment in a line: Antimycobacterial activity against Mycobacterium smegmatis str. MC2 155 after 2 days by inverted microscopic analysis in presence of plasma. In kind it is functional. As to conditions: str. MC2 155, 48 h.
In data set [27] the test system is Mycobacterium tuberculosis. The experiment in a line: Antimycobacterial activity against Mycobacterium tuberculosis H37Rv after 14 days by inverted microscopic analysis in presence of plasma. The format is functional. To be noted: 336 h.
In data set [28] the test system is Staphylococcus aureus. Description: Antibacterial activity against Staphylococcus aureus MTCC 737 at 16 to 256 uM measured after 1 to 24 hrs by microplate reader assay. The format is functional, organism-based.
Data set [29] concerns Mycolicibacterium smegmatis. The experiment in a line: Antimycobacterial activity against Mycobacterium smegmatis str. MC2 155 assessed as effect on […] by using propidium iodide dye. The format is functional, organism-based.
For data set [30], the system named is Escherichia coli. Description: Antibacterial activity against Escherichia coli MTCC 443 assessed as effect membrane morphology by atomic force microscopic analysis. The format is functional, organism-based.
Data set [31] relates to Escherichia coli. The experiment in a line: Antibacterial activity against Escherichia coli MTCC 443 assessed as effect membrane topology by atomic force microscopic analysis. The format is functional, organism-based.

Calls of active or inactive are those of the source. The calls are words filed in the database; no cut-off is given here.

Take `COC(=O)CC[C@@H](C)[C@H]1CC[C@H]2[C@@H]3[C@H](OC(=O)CN)C[C@@H]4C[C@H](OC(=O)CN)CC[C@]4(C)[C@H]3C[C@H](OC(=O)CN)[C@]12C.Cl.Cl.Cl`: the values for the Activity entry in the data set with Staphylococcus aureus [1], in the data set with A549 [9] and in the data set with Escherichia coli [10] were “Dose-dependent effect”, “Non-toxic” and “Dose-dependent effect”, respectively. The MIC99 – broadly, an inhibitory concentration at the 99% level, which refers to growth in some studies and to a panel of isolates in others – in [2] is greater than 50 µM; in [3], greater than 50 µM; in the data set on Escherichia coli [6], 32 µM; with Staphylococcus aureus [7], 64 µM. Besides, the selectivity ratio in data set [4] and in data set [5] was less than 20 throughout. Besides, the IC50 (in general, the midpoint of a concentration-inhibition curve) turned out to be 75.9 µM in the data set on A549 [8] and 38.2 µM in the data set with THP-1. In addition, the result (in data set [11]; in the data set with Lipid bilayer [22]; in data set [23]; in the data set on Lipid bilayer [24]) was inactive. The result in the data set with Escherichia coli [12], in the data set on Staphylococcus aureus [13], with Escherichia coli [14], with Escherichia coli [15], in the data set with Escherichia coli [16] and with Escherichia coli [17] was Active. Further, the outcome (in the data set with Staphylococcus aureus [18]; in the data set on Lipid bilayer [19]; in data set [20]; with Lipid bilayer [21]) was Active.
Regarding `COC(=O)CC[C@@H](C)[C@H]1CC[C@H]2[C@@H]3[C@H](OC(=O)C[n+]4ccc(N(C)C)cc4)C[C@@H]4C[C@H](OC(=O)C[n+]5ccc(N(C)C)cc5)CC[C@]4(C)[C@H]3C[C@H](OC(=O)C[n+]3ccc(N(C)C)cc3)[C@]12C.[Cl-].[Cl-].[Cl-]`, the outcome in the data set with Escherichia coli [25], in the data set on Staphylococcus aureus [28], with Escherichia coli [30], in the data set on Escherichia coli [31], with Lipid bilayer [21] and with Lipid bilayer [22] was inactive. In addition, the result in [23] was inactive. The MIC99 was 1.56 µM in data set [2]; 6.25 µM in data set [3]; 6.25 µM in data set [26]; 6.25 µM in data set [27]; greater than 512 µM in the data set with Escherichia coli [6]; 256 µM with Staphylococcus aureus [7]. The selectivity ratio in data set [4] and in data set [5] was greater than 160 in each case. Further, the IC50 with A549 [8] and with THP-1 was greater than 200 µM each time. Also, the Activity entry in the data set with A549 [9] was “Non-toxic”. In addition, the “fold change (FC)” value in data set [11] amounted to 10000. The result (in data set [29]; in the data set on Escherichia coli [17]; in the data set on Staphylococcus aureus [18]; in the data set with Lipid bilayer [24]) was Active.
For the compound `COC(=O)CC[C@@H](C)[C@H]1CC[C@H]2[C@@H]3[C@H](OC(=O)C[N+](C)(C)C)C[C@@H]4C[C@H](OC(=O)C[N+](C)(C)C)CC[C@]4(C)[C@H]3C[C@H](OC(=O)C[N+](C)(C)C)[C@]12C.[Cl-].[Cl-].[Cl-]`, the MIC99 in data set [2] was 12.5 µM; in data set [3], 50 µM; with Escherichia coli [6], greater than 512 µM; against Staphylococcus aureus [7] it was greater than 512 µM. In addition, the selectivity ratio in [4] and in [5] was greater than 20 throughout. Moreover, the results for the IC50 in the data set on A549 [8] and in the data set on THP-1 were greater than 200 µM and 80 µM, respectively. In addition, the Activity result in the data set with A549 [9] is “Non-toxic”.

For the origin of these results see ChEMBL document CHEMBL3621073, “Bile acid amphiphiles with tunable head groups as highly selective antitubercular agents” (Medchemcomm, 2014).
